This passage reports EC50 and IC50 results from patent US12410160B2 (Gilead Sciences, Inc., priority 2021, dated 2025).

One test concerns HepG2 cells. The test is described as follows: F1P Cell-Based Assay (EC50), 13C6-fructose-1-phosphate in HepG2 cells (cell culture medium or 50% human plasma).
Test [1] concerns the target KHK-C expressed in NRK-52E cells (Homo sapiens (Human), UniProt P50053). The test is described as follows: KHK-C Cell-based Assay (EC50), NRK CTG, fructose-mediated ATP-depletion.
For a further test, the target named is human KHK-C (Homo sapiens (Human), UniProt P50053). The test is described as follows: KHK Biochemical Assay (IC50), ADP-Glo, KHK-C. The settings on record: average of at least two separate assays. In outline:
(§1)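 Luminescent ADP-Glo read-out of ADP made by His-tagged KHK (BL21 (DE3) expression, Ni-NTA). Enzyme and compound sat together 30 min before ATP/fructose addition, then reacted 4 h at RT in Hepes pH 7.4 buffer with KCl, MgCl2, Triton-X. Quench 1 h, detection 1 h.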
In general terms: ADP-Glo turns the ADP formed in a reaction into a luminescent signal.

A further test deals with human KHK-A (Homo sapiens (Human), UniProt P50053). The test is described as follows: KHK Biochemical Assay (IC50), ADP-Glo, KHK-A. The settings on record: average of at least two separate assays. The procedure, abridged: as §1
Setting [2] is: Homo sapiens, HepG2, HepG2 cells, 50% human plasma, read-out: F1P 50% HP EC50.
Setting [3] is: Homo sapiens, HepG2, read-out: F1P 10% FBS EC50, HepG2 cells, cell culture medium (10% FBS).
Setting [4] is: HepG2 cells, 50% human plasma, read-out: F1P 50% HP EC50.
Setting [5] is: read-out: F1P 10% FBS EC50, HepG2 cells, cell culture medium (10% FBS).
Where [6] appears, read: read-out: NRK CTG EC50, NRK-52E cells, Cell-Titer Glo, 25 mM fructose.
Where [7] appears, read: read-out: NRK CTG EC50, NRK-52E cells, Cell-Titer Glo, 25 mM fructose, 48 hours.

Where two headings read alike, the source gives them in different places.

Chain of human KHK-C (P50053 whole entry): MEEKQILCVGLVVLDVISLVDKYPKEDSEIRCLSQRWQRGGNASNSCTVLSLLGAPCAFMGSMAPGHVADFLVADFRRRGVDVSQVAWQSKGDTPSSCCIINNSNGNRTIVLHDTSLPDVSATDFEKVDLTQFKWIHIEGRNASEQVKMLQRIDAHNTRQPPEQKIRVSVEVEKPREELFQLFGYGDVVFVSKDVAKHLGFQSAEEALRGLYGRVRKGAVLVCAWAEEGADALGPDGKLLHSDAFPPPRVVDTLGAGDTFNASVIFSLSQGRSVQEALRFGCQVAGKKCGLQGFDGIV
Chain of KHK-C expressed in NRK-52E cells (P50053 whole entry): as above
Chain of human KHK-A (P50053 other isoform, or with tags, fused parts or gaps): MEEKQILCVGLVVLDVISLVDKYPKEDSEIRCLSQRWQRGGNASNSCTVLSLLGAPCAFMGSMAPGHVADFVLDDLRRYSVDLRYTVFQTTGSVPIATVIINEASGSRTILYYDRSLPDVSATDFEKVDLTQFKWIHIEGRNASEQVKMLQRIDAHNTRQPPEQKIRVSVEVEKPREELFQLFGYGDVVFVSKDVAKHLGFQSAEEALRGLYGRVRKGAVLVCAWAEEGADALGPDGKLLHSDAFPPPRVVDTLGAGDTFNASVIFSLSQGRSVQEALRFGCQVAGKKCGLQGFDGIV

Usually EC50 stands for the concentration at which the effect is half-maximal. For orientation: IC50 means the concentration at which inhibition is half-maximal. Read a high IC50 as weaker potency. For the compound `COc1ccc(-c2nc(N3C[C@@H](O)[C@@H]3C)nc3c2CCC3(F)F)cc1[S@](C)(=N)=O` (single isomer, unassigned) [Example 496], the EC50 came out at 23.9 nM in the test with HepG2 cells (setting [2]), 9 nM with HepG2 cells (setting [3]) and 65.4 nM in test [1]. In addition, the 50% inhibitory concentration (IC50) on human KHK-C was determined as 7.6 nM; against human KHK-A it was 14.4 nM.

With `C[C@H]1[C@H](O)CN1c1nc(-c2ccc(OC(F)F)c([S@@](C)(=N)=O)c2)c2c(n1)C(F)(F)CC2` (single isomer, unassigned) [Example 533], the EC50 in the test on HepG2 cells (setting [2]) is 8.9 nM; in the test on HepG2 cells (setting [3]), 7.3 nM; in test [1], 18.2 nM. Besides, the IC50 against human KHK-C worked out at 3.8 nM; at human KHK-A it was 4.4 nM.

As for `C[C@H]1[C@H](O)CN1c1nc(-c2ccc3c(c2)CC[C@@]32COCC(=O)N2)c2c(n1)C(F)(F)CC2` (single isomer, unassigned) [Example 549], the EC50 in the test on HepG2 cells (setting [2]) was 17.4 nM; with HepG2 cells (setting [3]) it was 5.4 nM; in test [1] it was 3.8 nM. Also, the figures for the IC50 against human KHK-C and at human KHK-A were 0.1 nM and 5.4 nM, respectively.

Regarding `C[C@H]1[C@H](O)CN1c1nc(-c2ccc3c(c2)COC[C@@]32COC(=O)N2)c2c(n1)C(F)(F)CC2` (single isomer, unassigned) [Example 555], the figures for the EC50 (in the test with HepG2 cells (setting [4]); in the test with HepG2 cells (setting [5]); in test [1] (setting [6])) were 117 nM, 59.7 nM and 29 nM, respectively. Also, the 50% inhibitory concentration (IC50) against human KHK-C was determined as 1.2 nM; against human KHK-A, 30.5 nM.

Turning to `C[C@H]1[C@H](O)CN1c1nc(-c2ccc3c(c2)COC[C@]32COC(=O)N2)c2c(n1)C(F)(F)CC2` (single isomer, unassigned) [Example 556], the results for the EC50 (with HepG2 cells (setting [2]); in the test with HepG2 cells (setting [3]); in test [1]) were above 500 nM, 210 nM and 201 nM, respectively. The 50% inhibitory concentration (IC50) on human KHK-C turned out to be 26.6 nM; against human KHK-A it was 42.1 nM.

Consider `CC1OC[C@@]2(COc3cc(-c4nc(N5C[C@@H](O)[C@@H]5C)nc5c4CCC5(F)F)ccc32)NC1=O` (single isomer, unassigned) [Example 559], for which the EC50 worked out at 16.3 nM in the test on HepG2 cells (setting [4]), 5.6 nM in the test with HepG2 cells (setting [5]) and 3.2 nM in test [1] (setting [6]). For the same compound, the IC50 stood at 0.2 nM at human KHK-C and 7.8 nM on human KHK-A.

`CCN1C(=O)N[C@]2(COc3cc(-c4nc(N5C[C@@H](O)[C@@H]5C)nc5c4CCC5(F)F)ccc32)C1=O` (single isomer, unassigned) [Example 697]: the EC50 worked out at 23.7 nM in the test on HepG2 cells (setting [2]), 20.1 nM with HepG2 cells (setting [3]) and 3.7 nM in test [1]. In addition, the concentration for half-maximal inhibition (IC50) against human KHK-C was 0.1 nM; against human KHK-A, 8.6 nM.

For `CCN1C(=O)N[C@@]2(COc3cc(-c4nc(N5C[C@@H](O)[C@@H]5C)nc5c4CCC5(F)F)ccc32)C1=O` (single isomer, unassigned) [Example 698], the EC50 in the test on HepG2 cells (setting [4]) is 267 nM; in the test with HepG2 cells (setting [5]) it was 152 nM; in test [1] (setting [6]), 71.5 nM. In addition, the IC50 is 5.6 nM against human KHK-C and 47.4 nM against human KHK-A.

For `C[C@H]1[C@H](O)CN1c1nc(-c2ccc3c(c2)[S@](=N)(=O)CCO3)c2c(n1)C(F)(F)CC2` (single isomer, unassigned) [Example 820], the EC50 with HepG2 cells (setting [4]) came out at 67.8 nM; with HepG2 cells (setting [5]) it was 20.3 nM; in test [1] (setting [7]) it was 26.5 nM. Besides, the figures for the IC50 against human KHK-C (ADP-Glo) and on human KHK-A (ADP-Glo) were 6.2 nM and 14.3 nM, respectively.

Turning to `C[C@H]1[C@H](O)CN1c1nc(-c2cnc3c(c2)OC[C@@H]3NS(C)(=O)=O)c2c(n1)C(F)(F)CC2` (single isomer, unassigned) [Example 823], the concentration for a half-maximal effect (EC50) in the test on HepG2 cells (setting [4]) came out at 216 nM; with HepG2 cells (setting [5]), 90.6 nM; in test [1] (setting [7]) it was 56.3 nM. For the same compound, the IC50 against human KHK-C (ADP-Glo) was determined as 6.4 nM; against human KHK-A (ADP-Glo) it was 48.2 nM.

As for `C[C@H]1[C@H](O)CN1c1nc(-c2ccc3c(c2)OC[C@@]32NC(=O)N(C)C2=O)c2c(n1)C(F)(F)CC2` (single isomer, unassigned) [Example 826], the EC50 came to 16.8 nM in the test on HepG2 cells (setting [2]), 15.7 nM with HepG2 cells (setting [3]) and 4.2 nM in test [1]. The concentration for half-maximal inhibition (IC50) against human KHK-C (ADP-Glo) was 0.3 nM; on human KHK-A (ADP-Glo), 12.3 nM.

As for `C[C@H]1CCN1c1nc(-c2ccc(C3(N)COC3)cc2)c2c(n1)C(F)(F)CC2` [Example 160, (S)-3-(4-(7,7-difluoro-2-(2-methylazetidin-1-yl)-6,7-dihydro-5H-cyclopenta[d]pyrimidin-4-yl)phenyl)oxetan-3-amine], the figures for the EC50 (with HepG2 cells (setting [2]); in the test with HepG2 cells (setting [3]); in test [1]) were 13.4 nM, 4.8 nM and 2 nM, respectively. The IC50 at human KHK-C (ADP-Glo) came out at 0.9 nM; on human KHK-A (ADP-Glo) it was 4.6 nM.

As to `C[C@H]1CCN1c1nc2c(c(-c3ccc(C4(N)CCC4)cc3)n1)CCC2` [Example 312, (S)-1-(4-(2-(2-methylazetidin-1-yl)-6,7-dihydro-5H-cyclopenta[d]pyrimidin-4-yl)phenyl)cyclobutan-1-amine], the 50% effective concentration (EC50) was determined as 9.3 nM in the test with HepG2 cells (setting [2]), 3.9 nM in the test on HepG2 cells (setting [3]) and 2.1 nM in test [1]. For the same compound, the concentration for half-maximal inhibition (IC50) amounted to 0.9 nM against human KHK-C (ADP-Glo) and 1.2 nM on human KHK-A (ADP-Glo).

`C[C@H]1[C@H](O)CN1c1nc(-c2cc3c(c(S(N)(=O)=O)c2)OCC3)c2c(n1)C(F)(F)CC2` [Example 351, 5-(7,7-difluoro-2-((2S,3R)-3-hydroxy-2-methylazetidin-1-yl)-6,7-dihydro-5H-cyclopenta[d]pyrimidin-4-yl)-2,3-dihydrobenzofuran-7-sulfonamide]: the EC50 is 42.9 nM in the test on HepG2 cells (setting [2]), 27.4 nM in the test with HepG2 cells (setting [3]) and 97.2 nM in test [1]. The concentration for half-maximal inhibition (IC50) at human KHK-C (ADP-Glo) stood at 4.1 nM; against human KHK-A (ADP-Glo), 6.4 nM.

As for `C[C@H]1[C@H](F)CN1c1nc(-c2ccc(C3(N)COC3)cc2)c2c(n1)C(F)(F)CC2` [Example 468, 3-(4-(7,7-difluoro-2-((2S,3R)-3-fluoro-2-methylazetidin-1-yl)-6,7-dihydro-5H-cyclopenta[d]pyrimidin-4-yl)phenyl)oxetan-3-amine], the results for the EC50 (with HepG2 cells (setting [2]); in the test with HepG2 cells (setting [3]); in test [1]) were 23.8 nM, 7.6 nM and 4.3 nM, respectively. Also, the IC50 against human KHK-C was found to be 1.8 nM; at human KHK-A it was 5.3 nM.

Regarding `C[C@@H]1N(c2nc(-c3ccc(C4(N)COC4)cc3)c3c(n2)C(F)(F)CC3)CC1(F)F` [Example 470, (S)-3-(4-(2-(3,3-difluoro-2-methylazetidin-1-yl)-7,7-difluoro-6,7-dihydro-5H-cyclopenta[d]pyrimidin-4-yl)phenyl)oxetan-3-amine], the values for the concentration giving a half-maximal response (EC50) (in the test with HepG2 cells (setting [2]); in the test on HepG2 cells (setting [3]); in test [1]) were 51 nM, 13.4 nM and 5 nM, respectively. The IC50 against human KHK-C amounted to 1.9 nM; on human KHK-A, 6.3 nM.

In the case of `C[C@H]1[C@H](O)CN1c1nc(-c2ccc3c(c2)CC[C@]32NC(=O)N(C)C2=O)c2c(n1)C(F)(F)CC2` [Example 488, (58)-5′-[7,7-difluoro-2-[(2S,3R)-3-hydroxy-2-methyl-azetidin-1-yl]-5,6-dihydrocyclopenta[d]pyrimidin-4-yl]-3-methyl-spiro[imidazolidine-5,1′-indane]-2,4-dione], the half-maximal effective concentration (EC50) came to 44.4 nM with HepG2 cells (setting [2]), 28.7 nM in the test with HepG2 cells (setting [3]) and 4.1 nM in test [1]. Also, the values for the half-inhibitory concentration (IC50) against human KHK-C and against human KHK-A were 0.1 nM and 10.6 nM, respectively.

For `C[C@H]1[C@H](O)CN1c1nc(-c2ccc3c(c2)OCCC3NS(C)(=O)=O)c2c(n1)C(F)(F)CC2` (stereo partly drawn) [Example 757, N-[7-[7,7-difluoro-2-[(2S,3R)-3-hydroxy-2-methyl-azetidin-1-yl]-5,6-dihydrocyclopenta[d]pyrimidin-4-yl]chroman-4-yl]methanesulfonamide], the values for the EC50 (in the test on HepG2 cells (setting [2]); with HepG2 cells (setting [3]); in test [1]) were 59.7 nM, 20.6 nM and 32.4 nM, respectively. Besides, the half-inhibitory concentration (IC50) against human KHK-C was found to be 2.6 nM.

In the case of `C[C@H]1CCN1c1nc(-c2ccc3c(c2)OCC3NS(C)(=O)=O)c2c(n1)C(F)(F)CC2` (stereo partly drawn) [Example 758, N-[6-[7,7-difluoro-2-[(2S)-2-methylazetidin-1-yl]-5,6-dihydrocyclopenta[d]pyrimidin-4-yl]-2,3-dihydrobenzofuran-3-yl]methanesulfonamide], the 50% effective concentration (EC50) in the test on HepG2 cells (setting [2]) came to 41 nM; in the test with HepG2 cells (setting [3]), 6.5 nM; in test [1], 2.2 nM. On human KHK-C, the IC50 stood at 0.5 nM.

Regarding `C[C@H]1[C@H](O)CN1c1nc(-c2cc3c(c(CNS(C)(=O)=O)c2)OCC3)c2c(n1)C(F)(F)CC2` [Example 761, N-[[5-[7,7-difluoro-2-[(2S,3R)-3-hydroxy-2-methyl-azetidin-1-yl]-5,6-dihydrocyclopenta[d]pyrimidin-4-yl]-2,3-dihydrobenzofuran-7-yl]methyl]methanesulfonamide], the EC50 is 129 nM with HepG2 cells (setting [2]), 28.1 nM with HepG2 cells (setting [3]) and 27.4 nM in test [1]. This compound gave an IC50 against human KHK-C of 3.3 nM.

For the compound `C[C@H]1[C@H](O)CN1c1nc(-c2ccc3c(c2)O[C@@H](CO)CNC3=O)c2c(n1)C(F)(F)CC2` [Example 808, (R)-8-(7,7-difluoro-2-((2S,3R)-3-hydroxy-2-methylazetidin-1-yl)-6,7-dihydro-5H-cyclopenta[d]pyrimidin-4-yl)-2-(hydroxymethyl)-3,4-dihydrobenzo[f][1,4]oxazepin-5(2H)-one], the results for the EC50 (in the test on HepG2 cells (setting [2]); in the test on HepG2 cells (setting [3]); in test [1]) were 41.8 nM, 38.6 nM and 696 nM, respectively. Also, half-maximal inhibition against human KHK-C (ADP-Glo) (IC50) was put at 6.3 nM.
